# Assay: Percent purity of PTHrP analogue (10 mg/mL formulations) in coating on arrays stored at 25° C./60% RH or 5° C./ambient RH (HPLC)
# Format: physicochemical
# Procedure: The protein or polypeptide content in the formulation coated on the microneedle arrays was determined using an Agilent 1100 HPLC system (Agilent Technologies, Wilmington, Del.) equipped with a binary pump, well-plated thermostated autosampler, thermostated column compartment, and a diode array UV detector. A Zorbax 300SB-C8 column (Agilent Technologies, Wilmington, Del.) having a 5 μm particle size and 2.1×150 mm inner diameter was used for the separations. The column was maintained at 50° C. The mobile phase consisted of two eluents. Eluent A was 0.1% TFA (trifluoroacetic acid) in water and eluent B was 0.1% TFA in acetonitrile (Spectrum Chemical, New Brunswick, N.J.). A linear gradient from 80/20 to 50/50 (A/B) was applied over 30 minutes. The flow rate was 0.4 mL/minute and the UV detection wavelength was set at 214 nm. The total run time was 34 minutes and the sample injection volume was 15 μL.
# A sample formulation containing 10 mg/mL of [Glu^22,25,Leu^23,28,31,Aib^29,Lys^26,30]hPTHrP(1-34)NH2 and 10 mg/mL of L-histidine monohydrochloride (His-HCl) in PBS was prepared. A control formulation was also prepared containing 10 mg/mL of [Glu^22,25,Leu^23,28,31,Aib^29,Lys^26,30]hPTHrP(1-34)NH2 in PBS. […] Microneedle arrays were coated with either the sample or the control formulation. The coating was applied by dropwise addition of 40 μL of the formulation to the portion of the array defined by the octagon shaped pattern of microneedles. The coated arrays (both sample and control formulation coated) were dried in an oven at 35° C. for 1.5 hours followed by 30° C. for 15 hours.
# After drying, the coated arrays were placed in a storage chamber that was maintained at either 25° C./60% RH or 5° C./ambient RH. The [Glu^22,25,Leu^23,28,31,Aib^29,Lys^26,30]hPTHrP(1-34)NH2 content of the coated arrays was determined following storage in the chamber for 7 days, 14 days, 28 days, and 2 months. The initial [Glu^22,25,Leu^23,28,31,Aib^29,Lys^26,30]hPTHrP(1-34)NH2 content was also determined using freshly coated arrays (both sample and control formulation coated). The arrays used to determine initial content were stored in a refrigerator at about 4° C. and analyzed within one day of being prepared. At the designated time point, an array was taken from the chamber and washed with PBS (3.5 mL) to remove the coating from the array. An aliquot of the resulting wash solution was analyzed for [Glu^22,25,Leu^23,28,31,Aib^29,Lys^26,30]hPTHrP(1-34)NH2 content using the HPLC method described above. The results were quantified against an external standard of [Glu^22,25,Leu^23,28,31,Aib^29,Lys^26,30]hPTHrP(1-34)NH2. At each time point, the percent purity of [Glu^22,25,Leu^23,28,31,Aib^29,Lys^26,30]hPTHrP(1-34)NH2 in the coating was determined by measuring the peak area for [Glu^22,25,Leu^23,28,31,Aib^29,Lys^26,30]hPTHrP(1-34)NH2 in the selected coating and dividing it by the total peak area measured for all [Glu^22,25,Leu^23,28,31,Aib^29,Lys^26,30]hPTHrP(1-34)NH2 related peaks.
# The same procedure as described in Example 10 was used with the exception that the sample formulation contained 10 mg/mL of L-arginine hydrochloride, instead of L-histidine monohydrochloride.
substance,measurement,setting,value
"[Glu^22,25,Leu^23,28,31,Aib^29,Lys^26,30]hPTHrP(1-34)NH2","Percent Purity of [Glu^22,25, Leu^23,28,31, Aib^29, Lys^26,30]hPTHrP(1-34)NH2","Amino Acid L-Arginine (Arg-HCl 10 mg/mL), peptide in PBS, Storage Condition 5° C./ambient RH, 0 day",99.0%
same,"Percent Purity of [Glu^22,25, Leu^23,28,31, Aib^29, Lys^26,30]hPTHrP(1-34)NH2","Amino Acid L-Arginine (Arg-HCl 10 mg/mL), peptide in PBS, Storage Condition 5° C./ambient RH, 2 months",98.4%
same,"Percent Purity of [Glu^22,25, Leu^23,28,31, Aib^29, Lys^26,30]hPTHrP(1-34)NH2","Amino Acid L-Arginine (Arg-HCl 10 mg/mL), peptide in PBS, Storage Condition 5° C./ambient RH, 7 day",98.8%
same,"Percent Purity of [Glu^22,25, Leu^23,28,31, Aib^29, Lys^26,30]hPTHrP(1-34)NH2","Amino Acid L-Arginine (Arg-HCl 10 mg/mL), peptide in PBS, Storage Condition 5° C./ambient RH, 14 day",98.8%
same,"Percent Purity of [Glu^22,25, Leu^23,28,31, Aib^29, Lys^26,30]hPTHrP(1-34)NH2","Amino Acid L-Arginine (Arg-HCl 10 mg/mL), peptide in PBS, Storage Condition 5° C./ambient RH, 28 day",98.8%
same,"Percent Purity of [Glu^22,25, Leu^23,28,31, Aib^29, Lys^26,30]hPTHrP(1-34)NH2","Amino Acid L-Arginine (Arg-HCl 10 mg/mL), peptide in PBS, Storage Condition 25° C./60% RH, 0 day",99.0%
same,"Percent Purity of [Glu^22,25, Leu^23,28,31, Aib^29, Lys^26,30]hPTHrP(1-34)NH2","Amino Acid L-Arginine (Arg-HCl 10 mg/mL), peptide in PBS, Storage Condition 25° C./60% RH, 2 months",97.8%
same,"Percent Purity of [Glu^22,25, Leu^23,28,31, Aib^29, Lys^26,30]hPTHrP(1-34)NH2","Amino Acid L-Arginine (Arg-HCl 10 mg/mL), peptide in PBS, Storage Condition 25° C./60% RH, 7 day",98.8%
same,"Percent Purity of [Glu^22,25, Leu^23,28,31, Aib^29, Lys^26,30]hPTHrP(1-34)NH2","Amino Acid L-Arginine (Arg-HCl 10 mg/mL), peptide in PBS, Storage Condition 25° C./60% RH, 14 day",98.6%
same,"Percent Purity of [Glu^22,25, Leu^23,28,31, Aib^29, Lys^26,30]hPTHrP(1-34)NH2","Amino Acid L-Arginine (Arg-HCl 10 mg/mL), peptide in PBS, Storage Condition 25° C./60% RH, 28 day",98.7%
same,"Percent Purity of [Glu^22,25, Leu^23,28,31, Aib^29, Lys^26,30]hPTHrP(1-34)NH2","Amino Acid L-Histidine (His-HCl 10 mg/mL), peptide 10 mg/mL in PBS, Storage Condition 5° C./ambient RH, 2 months",98.7%
same,"Percent Purity of [Glu^22,25, Leu^23,28,31, Aib^29, Lys^26,30]hPTHrP(1-34)NH2","Amino Acid L-Histidine (His-HCl 10 mg/mL), peptide 10 mg/mL in PBS, Storage Condition 5° C./ambient RH, Day 7",98.9%
same,"Percent Purity of [Glu^22,25, Leu^23,28,31, Aib^29, Lys^26,30]hPTHrP(1-34)NH2","Amino Acid L-Histidine (His-HCl 10 mg/mL), peptide 10 mg/mL in PBS, Storage Condition 5° C./ambient RH, Day 14",98.9%
same,"Percent Purity of [Glu^22,25, Leu^23,28,31, Aib^29, Lys^26,30]hPTHrP(1-34)NH2","Amino Acid L-Histidine (His-HCl 10 mg/mL), peptide 10 mg/mL in PBS, Storage Condition 5° C./ambient RH, Day 28",98.9%
same,"Percent Purity of [Glu^22,25, Leu^23,28,31, Aib^29, Lys^26,30]hPTHrP(1-34)NH2","Amino Acid L-Histidine (His-HCl 10 mg/mL), peptide 10 mg/mL in PBS, Storage Condition 5° C./ambient RH, Initial",99.0%
same,"Percent Purity of [Glu^22,25, Leu^23,28,31, Aib^29, Lys^26,30]hPTHrP(1-34)NH2","Amino Acid L-Histidine (His-HCl 10 mg/mL), peptide 10 mg/mL in PBS, Storage Condition 25° C./60% RH, 2 months",98.6%
same,"Percent Purity of [Glu^22,25, Leu^23,28,31, Aib^29, Lys^26,30]hPTHrP(1-34)NH2","Amino Acid L-Histidine (His-HCl 10 mg/mL), peptide 10 mg/mL in PBS, Storage Condition 25° C./60% RH, Day 7",98.9%
same,"Percent Purity of [Glu^22,25, Leu^23,28,31, Aib^29, Lys^26,30]hPTHrP(1-34)NH2","Amino Acid L-Histidine (His-HCl 10 mg/mL), peptide 10 mg/mL in PBS, Storage Condition 25° C./60% RH, Day 14",98.8%
same,"Percent Purity of [Glu^22,25, Leu^23,28,31, Aib^29, Lys^26,30]hPTHrP(1-34)NH2","Amino Acid L-Histidine (His-HCl 10 mg/mL), peptide 10 mg/mL in PBS, Storage Condition 25° C./60% RH, Day 28",98.9%
same,"Percent Purity of [Glu^22,25, Leu^23,28,31, Aib^29, Lys^26,30]hPTHrP(1-34)NH2","Amino Acid L-Histidine (His-HCl 10 mg/mL), peptide 10 mg/mL in PBS, Storage Condition 25° C./60% RH, Initial",99.0%
same,"Percent Purity of [Glu^22,25, Leu^23,28,31, Aib^29, Lys^26,30]hPTHrP(1-34)NH2","Amino Acid None (control), peptide 10 mg/mL in PBS, Storage Condition 5° C./ambient RH, 2 months",97.3%
same,"Percent Purity of [Glu^22,25, Leu^23,28,31, Aib^29, Lys^26,30]hPTHrP(1-34)NH2","Amino Acid None (control), peptide 10 mg/mL in PBS, Storage Condition 5° C./ambient RH, Day 7",98.2%
same,"Percent Purity of [Glu^22,25, Leu^23,28,31, Aib^29, Lys^26,30]hPTHrP(1-34)NH2","Amino Acid None (control), peptide 10 mg/mL in PBS, Storage Condition 5° C./ambient RH, Day 14",98.4%
same,"Percent Purity of [Glu^22,25, Leu^23,28,31, Aib^29, Lys^26,30]hPTHrP(1-34)NH2","Amino Acid None (control), peptide 10 mg/mL in PBS, Storage Condition 5° C./ambient RH, Day 28",97.6%
same,"Percent Purity of [Glu^22,25, Leu^23,28,31, Aib^29, Lys^26,30]hPTHrP(1-34)NH2","Amino Acid None (control), peptide 10 mg/mL in PBS, Storage Condition 5° C./ambient RH, Initial",98.7%
same,"Percent Purity of [Glu^22,25, Leu^23,28,31, Aib^29, Lys^26,30]hPTHrP(1-34)NH2","Amino Acid None (control), peptide 10 mg/mL in PBS, Storage Condition 25° C./60% RH, 2 months",96.3%
same,"Percent Purity of [Glu^22,25, Leu^23,28,31, Aib^29, Lys^26,30]hPTHrP(1-34)NH2","Amino Acid None (control), peptide 10 mg/mL in PBS, Storage Condition 25° C./60% RH, Day 7",98.0%
same,"Percent Purity of [Glu^22,25, Leu^23,28,31, Aib^29, Lys^26,30]hPTHrP(1-34)NH2","Amino Acid None (control), peptide 10 mg/mL in PBS, Storage Condition 25° C./60% RH, Day 14",97.7%
same,"Percent Purity of [Glu^22,25, Leu^23,28,31, Aib^29, Lys^26,30]hPTHrP(1-34)NH2","Amino Acid None (control), peptide 10 mg/mL in PBS, Storage Condition 25° C./60% RH, Day 28",97.5%
same,"Percent Purity of [Glu^22,25, Leu^23,28,31, Aib^29, Lys^26,30]hPTHrP(1-34)NH2","Amino Acid None (control), peptide 10 mg/mL in PBS, Storage Condition 25° C./60% RH, Initial",98.7%
